In patent US20220306737A1, “USE OF HIGH-AFFINITY, LIGAND-BLOCKING, HUMANIZED ANTI-T-CELL IMMUNOGLOBULIN DOMAIN AND MUCIN DOMAIN-3 (TIM-3) IGG4 ANTIBODY FOR THE TREATMENT OF MYELOFIBROSIS” (Novartis AG, priority 2019, published 2022):
Entries after “also recorded” stand apart in the source; their conditions may differ.

Legend:
[1] = target: JAK3 (Homo sapiens, UniProt P52333); settings: at clinically relevant concentrations; cited from earlier work
[2] = test system: broad panel of 26 kinases; settings: tested at 200 nM; cited from earlier work
[3] = cited from earlier work
[4] = CMBG453X2101 clinical study in advanced solid tumors, safety; assay type: in vivo, human; settings: any dose up to 1200 mg IV Q2W or Q4W
Description: (§1) In this study, the selection of the MBG453 dose and regimen is based on the currently available clinical safety, efficacy, PK and PK/PD modeling information from the CMBG453X2101 in advanced solid tumors and CPDR001X2105 in AML and MDS trials for MBG453. For solid tumor subjects, both 800 mg IV Q4W and 400 mg IV every 2 weeks (Q2W) are predicted to give sustained target (TIM-3) occupancy of 90% in tumor in >90% of subjects. […] MBG453 single agent is also being evaluated in AML/MDS subjects in the CPDR001X2105 study with Q4W and Q2W regimens. The recommended dose in AML/MDS has not yet been determined, however it is not expected to be different from solid tumors, based on preliminary PK and safety data.

[5] = CPDR001X2105 clinical study in AML/MDS subjects, tolerability; assay type: in vivo, human; settings: 400 mg IV Q2W and 800 mg IV Q4W
Description: as §1

[6] = MBG453 phase I/II development, impact on hematopoiesis; assay type: in vivo, human

Chain of JAK3 (P52333 whole entry, species assumed): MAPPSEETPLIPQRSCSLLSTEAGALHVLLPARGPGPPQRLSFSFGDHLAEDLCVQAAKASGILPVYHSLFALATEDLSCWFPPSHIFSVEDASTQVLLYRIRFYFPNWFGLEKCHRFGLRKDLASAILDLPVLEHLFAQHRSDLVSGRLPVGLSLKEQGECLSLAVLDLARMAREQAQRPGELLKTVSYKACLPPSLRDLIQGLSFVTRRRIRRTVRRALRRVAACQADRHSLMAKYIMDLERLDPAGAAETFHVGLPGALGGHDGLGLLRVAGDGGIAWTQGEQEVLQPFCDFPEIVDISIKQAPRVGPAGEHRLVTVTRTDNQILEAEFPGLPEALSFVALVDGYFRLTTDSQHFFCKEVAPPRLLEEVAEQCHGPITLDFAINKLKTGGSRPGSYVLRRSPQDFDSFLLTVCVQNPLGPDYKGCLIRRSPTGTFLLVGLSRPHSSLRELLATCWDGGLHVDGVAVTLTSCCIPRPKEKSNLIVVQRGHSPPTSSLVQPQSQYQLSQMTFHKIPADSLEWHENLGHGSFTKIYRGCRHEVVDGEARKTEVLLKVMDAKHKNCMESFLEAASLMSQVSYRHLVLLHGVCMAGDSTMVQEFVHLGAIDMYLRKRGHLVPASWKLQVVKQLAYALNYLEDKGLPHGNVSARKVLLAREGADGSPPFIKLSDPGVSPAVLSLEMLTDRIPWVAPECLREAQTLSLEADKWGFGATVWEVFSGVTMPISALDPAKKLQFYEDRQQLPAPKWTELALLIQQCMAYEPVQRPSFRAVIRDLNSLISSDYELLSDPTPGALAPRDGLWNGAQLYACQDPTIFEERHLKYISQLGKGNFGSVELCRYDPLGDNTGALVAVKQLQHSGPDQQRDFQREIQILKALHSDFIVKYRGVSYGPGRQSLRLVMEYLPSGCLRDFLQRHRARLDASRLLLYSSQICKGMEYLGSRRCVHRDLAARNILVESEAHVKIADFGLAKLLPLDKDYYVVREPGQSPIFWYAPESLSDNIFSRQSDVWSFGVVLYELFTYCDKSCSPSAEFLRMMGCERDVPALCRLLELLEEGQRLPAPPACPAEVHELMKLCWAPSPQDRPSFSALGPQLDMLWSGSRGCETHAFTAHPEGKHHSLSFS

Compound | inhibition of JAK3 [1] | inhibition of a broad panel of 26 kinases [2] | effect on anemia ([3]; MF patients) | effect on splenomegaly (spleen size) and constitutional symptoms of MF ([3]; MF patients) | hematoxicity ([3]; human, in vivo) | safety signal [4] | tolerability [5] | impact on hematopoiesis [6]
N#CC[C@H](C1CCCC1)n1cc(-c2ncnc3[nH]ccc23)cn1 [Ruxolitinib, (R)-3-(4-(7H-pyrrolo[2,3-d]pyrimidin-4-yl)-1H-pyrazol-1-yl)-3-cyclopentylpropanenitrile] | does not inhibit | < 30% | does not improve | highly effective; also recorded: improvements | partial transient hematoxicity |  |  | 
MBG453: anti-TIM-3 antibody disclosed in US Patent Application Publication No. 2015/0218274 |  |  |  |  |  | No significant safety signal | well tolerated | has not been found to have a negative impact on hematopoiesis
